The structures appear in SMILES notation.

The assay deals with T1, recombinant human 11 β-HSD1 (Homo sapiens, UniProt P28845).
T1 construct: made in house; host or cells: E. coli
T1 sequence (P28845 whole entry): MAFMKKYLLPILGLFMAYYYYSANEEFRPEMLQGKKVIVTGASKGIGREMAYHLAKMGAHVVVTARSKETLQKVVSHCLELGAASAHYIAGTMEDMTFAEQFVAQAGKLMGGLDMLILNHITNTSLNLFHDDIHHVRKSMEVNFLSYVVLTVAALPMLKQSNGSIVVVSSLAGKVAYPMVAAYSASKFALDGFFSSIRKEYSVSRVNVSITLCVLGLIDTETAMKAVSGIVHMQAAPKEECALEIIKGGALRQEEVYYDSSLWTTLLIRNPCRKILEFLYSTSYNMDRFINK
Briefly: 11 β-HSD1 SPA Assay (Scintillation Proximity Assay). The assay is classed as biochemical. The procedure, abridged: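 Scintillation proximity read-out of cortisol formed from 40 nM [3H]cortisone by purified recombinant human enzyme (30-100 nM, E. coli) with 1 mM NADPH, pH7.4, 2 hours at room temperature; beads with cortisol antibody and glycyrrhetinic acid stop the reaction, read next day. IC50 derived from inhibition normalised to background and maximal wells.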
In the case of `CC(C)c1cc(Cl)ccc1OC(C)(C)C(=O)N[C@H]1C[C@H]2CC[C@@H](C1)N2c1ccc(C(=O)NCC(F)(F)F)cn1` [Example 353, 6-[3-endo-({2-[4-chloro-2-(propan-2-yl)phenoxy]-2-methylpropanoyl}amino)-8-azabicyclo[3.2.1]oct-8-yl]-N-(2,2,2-trifluoroethyl)pyridine-3-carboxamide], the IC50 is less than 200 nM.
The figure for `CC(C)(Oc1nccc2ccccc12)C(=O)N[C@H]1C[C@H]2CC[C@@H](C1)N2c1ccc(C(=O)NCC(F)(F)F)cn1` [Example 354, 6-(3-endo-{[2-(isoquinolin-1-yloxy)-2-methylpropanoyl]amino}-8-azabicyclo[3.2.1]oct-8-yl)-N-(2,2,2-trifluoroethyl)pyridine-3-carboxamide] is less than 200 nM; for `CC(C)(Oc1ccc(Cl)cc1Cl)C(=O)N[C@H]1C[C@H]2CC[C@@H](C1)N2c1ccc(C(=O)NCC(F)F)cn1` [Example 355, 6-(3-endo-{[2-(2,4-dichlorophenoxy)-2-methylpropanoyl]amino}-8-azabicyclo[3.2.1]oct-8-yl)-N-(2,2-difluoroethyl)pyridine-3-carboxamide] it is less than 200 nM; for `CC(C)(Oc1ccc(Cl)cc1S(C)(=O)=O)C(=O)NC1CC2CCC(C1)N2c1ccc(C(=O)NC2CC2(F)F)cn1` (stereo not drawn) [Example 357, 6-[3-endo-({2-[4-chloro-2-(methylsulfonyl)phenoxy]-2-methylpropanoyl}amino)-8-azabicyclo[3.2.1]oct-8-yl]-N-(2,2-difluorocyclopropyl)pyridine-3-carboxamide] it is less than 200 nM.
The figure for `CC(C)(Oc1ccc(Cl)cc1N1CCOCC1)C(=O)N[C@H]1C[C@H]2CC[C@@H](C1)N2c1ccc(C(=O)NCC(F)(F)F)cn1` [Example 359, 6-[3-endo-({2-[4-chloro-2-(morpholin-4-yl)phenoxy]-2-methylpropanoyl}amino)-8-azabicyclo[3.2.1]oct-8-yl]-N-(2,2,2-trifluoroethyl)pyridine-3-carboxamide] is less than 200 nM; for `CC(C)(Oc1ccc(Cl)cc1C(N)=O)C(=O)N[C@H]1C[C@H]2CC[C@@H](C1)N2c1ccc(C(=O)NCC(F)(F)F)cn1` [Example 360, 6-(3-endo-{[2-(2-carbamoyl-4-chlorophenoxy)-2-methylpropanoyl]amino}-8-azabicyclo[3.2.1]oct-8-yl)-N-(2,2,2-trifluoroethyl)pyridine-3-carboxamide] it is less than 200 nM.
The figure for `CC(C)(Oc1cc(OCCO)c(Cl)cc1Cl)C(=O)N[C@H]1C[C@H]2CC[C@@H](C1)N2c1ccc(C(=O)NCC(F)(F)F)cn1` [Example 361, 6-[3-endo-({2-[2,4-dichloro-5-(2-hydroxyethoxy)phenoxy]-2-methylpropanoyl}amino)-8-azabicyclo[3.2.1]oct-8-yl]-N-(2,2,2-trifluoroethyl)pyridine-3-carboxamide] is less than 200 nM.
For `CC(C)(Oc1ccc(Cl)cc1Cl)C(=O)N[C@H]1C[C@H]2CC[C@@H](C1)N2c1ccc(C(=O)NCCN2CCOCC2)cn1` [Example 362, 6-(3-endo-{[2-(2,4-dichlorophenoxy)-2-methylpropanoyl]amino}-8-azabicyclo[3.2.1]oct-8-yl)-N-[2-(morpholin-4-yl)ethyl]pyridine-3-carboxamide], the concentration for half-maximal inhibition (IC50) is less than 200 nM.
The figure for `CC(C)(Oc1ccc(Cl)cc1OC(F)(F)F)C(=O)N[C@H]1C[C@H]2CC[C@@H](C1)N2c1ccc(C(=O)NCC(F)(F)F)cn1` [Example 363, 6-[3-endo-({2-[4-chloro-2-(trifluoromethoxy)phenoxy]-2-methylpropanoyl}amino)-8-azabicyclo[3.2.1]oct-8-yl]-N-(2,2,2-trifluoroethyl)pyridine-3-carboxamide] is less than 200 nM.
With `CC(C)(Oc1ccc(Cl)cc1C(F)F)C(=O)N[C@H]1C[C@H]2CC[C@@H](C1)N2c1ccc(C(=O)NCC(F)(F)F)cn1` [Example 364, 6-[3-endo-({2-[4-chloro-2-(difluoromethyl)phenoxy]-2-methylpropanoyl}amino)-8-azabicyclo[3.2.1]oct-8-yl]-N-(2,2,2-trifluoroethyl)pyridine-3-carboxamide], the IC50 was less than 200 nM.
The figure for `CC(C)(Oc1ccc(Cl)cc1C(F)F)C(=O)N[C@H]1C[C@H]2CC[C@@H](C1)N2c1ccc(S(C)(=O)=O)cn1` [Example 365, 2-[4-chloro-2-(difluoromethyl)phenoxy]-2-methyl-N-{8-[5-(methylsulfonyl)pyridin-2-yl]-8-azabicyclo[3.2.1]oct-3-endo-yl}propanamide] is less than 200 nM.
As to `CC(C)(Oc1cccc2[nH]ccc12)C(=O)N[C@H]1C[C@H]2CC[C@@H](C1)N2c1ccc(C(=O)NCC(F)(F)F)cn1` [Example 366, 6-(3-endo-{[2-(1h-indol-4-yloxy)-2-methylpropanoyl]amino}-8-azabicyclo[3.2.1]oct-8-yl)-N-(2,2,2-trifluoroethyl)pyridine-3-carboxamide], the IC50 is less than 200 nM.
Take `CC(C)(Oc1ccc(Cl)cc1Cl)C(=O)N[C@H]1C[C@H]2CC[C@@H](C1)N2c1ccc(C(=O)NCCO)cn1` [Example 367, 6-(3-endo-{[2-(2,4-dichlorophenoxy)-2-methylpropanoyl]amino}-8-azabicyclo[3.2.1]oct-8-yl)-N-(2-hydroxyethyl)pyridine-3-carboxamide]: the IC50 was less than 200 nM.
For `CC(C)NC(=O)c1ccc(N2[C@@H]3CC[C@H]2C[C@@H](NC(=O)C(C)(C)Oc2ccc(Cl)cc2S(C)(=O)=O)C3)nc1` [Example 368, 6-[3-endo-({2-[4-chloro-2-(methylsulfonyl)phenoxy]-2-methylpropanoyl}amino)-8-azabicyclo[3.2.1]oct-8-yl]-N-(propan-2-yl)pyridine-3-carboxamide], the IC50 was less than 200 nM.
The figure for `CC(C)(Oc1ccc(F)cc1C(F)(F)F)C(=O)NC1CC2CCC(C1)N2c1ccc(C(=O)NC2CC2(F)F)cn1` (stereo not drawn) [Example 369, N-(2,2-difluorocyclopropyl)-6-[3-endo-({2-[4-fluoro-2-(trifluoromethyl)phenoxy]-2-methylpropanoyl}amino)-8-azabicyclo[3.2.1]oct-8-yl]pyridine-3-carboxamide] is less than 200 nM.
The figure for `CC(C)NC(=O)c1ccc(N2[C@@H]3CC[C@H]2C[C@@H](NC(=O)C(C)(C)Oc2ccc(Cl)cc2C(F)(F)F)C3)nc1` [Example 370, 6-[3-endo-({2-[4-chloro-2-(trifluoromethyl)phenoxy]-2-methylpropanoyl}amino)-8-azabicyclo[3.2.1]oct-8-yl]-N-(propan-2-yl)pyridine-3-carboxamide] is less than 200 nM.
The figure for `CC(C)(Oc1ccc(F)cc1Cl)C(=O)N[C@H]1C[C@H]2CC[C@@H](C1)N2c1ccc(C(=O)NCC(F)F)cn1` [Example 371, 6-(3-endo-{[2-(2-chloro-4-fluorophenoxy)-2-methylpropanoyl]amino}-8-azabicyclo[3.2.1]oct-8-yl)-N-(2,2-difluoroethyl)pyridine-3-carboxamide] is less than 200 nM; for `CC(C)(Oc1ccc(F)cc1C(F)(F)F)C(=O)N[C@H]1C[C@H]2CC[C@@H](C1)N2c1ccc(C(=O)NCC(F)F)cn1` [Example 372, N-(2,2-difluoroethyl)-6-[3-endo-({2-[4-fluoro-2-(trifluoromethyl)phenoxy]-2-methylpropanoyl}amino)-8-azabicyclo[3.2.1]oct-8-yl]pyridine-3-carboxamide] it is less than 200 nM; for `C[C@@H](NC(=O)c1ccc(N2C3CCC2CC(NC(=O)C(C)(C)Oc2ccc(Cl)cc2Cl)C3)nc1)C(F)(F)F` (stereo partly drawn) [Example 373, 6-(3-endo-{[2-(2,4-dichlorophenoxy)-2-methylpropanoyl]amino}-8-azabicyclo[3.2.1]oct-8-yl)-N-[(2R)-1,1,1-trifluoropropan-2-yl]pyridine-3-carboxamide] it is less than 200 nM.
As to `C[C@H](NC(=O)c1ccc(N2C3CCC2CC(NC(=O)C(C)(C)Oc2ccc(Cl)cc2Cl)C3)nc1)C(F)(F)F` (stereo partly drawn) [Example 374, 6-(3-endo-{[2-(2,4-dichlorophenoxy)-2-methylpropanoyl]amino}-8-azabicyclo[3.2.1]oct-8-yl)-N-[(2S)-1,1,1-trifluoropropan-2-yl]pyridine-3-carboxamide], the IC50 was less than 200 nM.
On to `CC(C)(Oc1ccc(Cl)cc1C(=O)O)C(=O)N[C@H]1C[C@H]2CC[C@@H](C1)N2c1ccc(C(=O)NCC(F)(F)F)cn1` [Example 375, 5-chloro-2-({2-methyl-1-oxo-1-[(8-{5-[(2,2,2-trifluoroethyl)carbamoyl]pyridin-2-yl}-8-azabicyclo[3.2.1]oct-3-endo-yl)amino]propan-2-yl}oxy)benzoic acid], for which the IC50 is less than 200 nM.
The figure for `CC(C)(Oc1ccc(Cl)cc1CO)C(=O)N[C@H]1C[C@H]2CC[C@@H](C1)N2c1ccc(C(=O)NCC(F)(F)F)cn1` [Example 376, 6-[3-endo-({2-[4-chloro-2-(hydroxymethyl)phenoxy]-2-methylpropanoyl}amino)-8-azabicyclo[3.2.1]oct-8-yl]-N-(2,2,2-trifluoroethyl)pyridine-3-carboxamide] is less than 200 nM; for `CCN(CC)CCNC(=O)c1ccc(N2[C@@H]3CC[C@H]2C[C@@H](NC(=O)C(C)(C)Oc2ccc(Cl)cc2Cl)C3)nc1` [Example 377, 6-(3-endo-{[2-(2,4-dichlorophenoxy)-2-methylpropanoyl]amino}-8-azabicyclo[3.2.1]oct-8-yl)-N-[2-(diethylamino)ethyl]pyridine-3-carboxamide] it is less than 200 nM; for `CC(C)(Oc1ccc(Cl)cc1Cl)C(=O)N[C@H]1C[C@H]2CC[C@@H](C1)N2c1ccc(C(=O)NC2CCOCC2)cn1` [Example 378, 6-(3-endo-{[2-(2,4-dichlorophenoxy)-2-methylpropanoyl]amino}-8-azabicyclo[3.2.1]oct-8-yl)-N-(tetrahydro-2h-pyran-4-yl)pyridine-3-carboxamide] it is less than 200 nM.
The figure for `CC(C)(Oc1ccc(Cl)cc1Cl)C(=O)N[C@H]1C[C@H]2CC[C@@H](C1)N2c1ccc(C(=O)NC2CCS(=O)(=O)CC2)cn1` [Example 379, 6-(3-endo-{[2-(2,4-dichlorophenoxy)-2-methylpropanoyl]amino}-8-azabicyclo[3.2.1]oct-8-yl)-N-(1,1-dioxidotetrahydro-2h-thiopyran-4-yl)pyridine-3-carboxamide] is less than 200 nM.

Values taken from patent US8163771B2, “11 β-HSD1 modulators” (Exelixis, Inc., priority 2008, dated 2012).
